Test results from patent publication US20250171438A1 (Agios Pharmaceuticals, Inc., priority 2022, published 2025).

The compounds below were run against T1, human PAH with the R408W mutation (Homo sapiens, UniProt P00439, R408W) (assay: Cell Based Phenylalanine Flux Assay). Details: A375 cells expressing human R408W PAH; 24 hrs compound incubation; 13C-Tyrosine by LC-MS; average where tested multiple times; read-out: AC50.
T1 construct: expressed in transfected cells
T1 sequence (P00439 1-452 R408W): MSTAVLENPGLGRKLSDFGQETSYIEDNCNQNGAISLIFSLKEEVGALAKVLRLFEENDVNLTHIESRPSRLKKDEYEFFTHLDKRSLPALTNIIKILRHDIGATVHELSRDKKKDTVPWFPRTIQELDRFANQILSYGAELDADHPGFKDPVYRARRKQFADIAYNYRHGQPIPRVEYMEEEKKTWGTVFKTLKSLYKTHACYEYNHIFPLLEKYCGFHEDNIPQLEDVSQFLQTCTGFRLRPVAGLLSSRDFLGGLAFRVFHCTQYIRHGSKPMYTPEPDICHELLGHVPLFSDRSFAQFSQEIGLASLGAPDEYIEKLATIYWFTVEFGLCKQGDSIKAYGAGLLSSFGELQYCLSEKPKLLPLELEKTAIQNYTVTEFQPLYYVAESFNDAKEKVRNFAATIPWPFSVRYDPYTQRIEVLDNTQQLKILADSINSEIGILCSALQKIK
Set-up: scale not given here

Row | Compound | AC50
1 | O=C(c1cnn2ccc(Br)cc12)N1CCc2[nH]cnc2[C@@H]1c1nc2ccc(F)cc2s1 [Example 1138, (R)-(5-bromopyrazolo[1,5-a]pyridin-3-yl)(4-(6-fluorobenzo[d]thiazol-2-yl)-6,7-dihydro-1H-imidazo[4,5-c]pyridin-5(4H)-yl)methanone] | 1000 to 5000 nM
2 | O=C(c1nncs1)N1CCc2[nH]cnc2[C@@H]1c1nc2ccc(Br)cc2[nH]1 [Example 978, (R)-(4-(6-bromo-1H-benzo[d]imidazol-2-yl)-6,7-dihydro-1H-imidazo[4,5-c]pyridin-5(4H)-yl)(1,3,4-thiadiazol-2-yl)methanone] | > 5000 nM
3 | O=C(CCC1CC1)N1CCc2nc[nH]c2[C@@H]1c1nc2c(F)cccc2s1 [Example 1114, (R)-3-cyclopropyl-1-(4-(4-fluorobenzo[d]thiazol-2-yl)-6,7-dihydro-3H-imidazo[4,5-c]pyridin-5(4H)-yl)propan-1-one] | > 5000 nM
4 | O=C(c1n[nH]c2ccccc12)N1CCc2[nH]cnc2[C@@H]1c1nc2ccccc2s1 [Example 1050, (R)-(4-(benzo[d]thiazol-2-yl)-6,7-dihydro-1H-imidazo[4,5-c]pyridin-5(4H)-yl)(1H-indazol-3-yl)methanone] | > 5000 nM
5 | O=C(c1oc(-c2ccccn2)nc1C1CC1)N1CCc2[nH]cnc2[C@H]1c1nc2ccccc2[nH]1 [Example 995, (S)-(4-(1H-benzo[d]imidazol-2-yl)-6,7-dihydro-1H-imidazo[4,5-c]pyridin-5(4H)-yl)(4-cyclopropyl-2-(pyridin-2-yl)oxazol-5-yl)methanone] | 500 to 1000 nM

More lines, now with the values ahead:

Row | AC50 | Compound
6 | < 500 nM | Cc1nc(CCCN2CCOCC2)oc1C(=O)N1CCc2[nH]cnc2[C@H]1c1nc2ccccc2s1 [Example 1701]
7 | < 500 nM | CC(C)(F)c1ncc(C(=O)N2CCc3[nH]cnc3[C@H]2c2nc3ccccc3s2)s1 [Example 1463]
8 | 1000 to 5000 nM | Cn1nc(C(C)(C)C#N)nc1C(=O)N1CCc2[nH]cnc2[C@@H]1c1nc2ccccc2s1 [Example 2046, (R)-2-(5-(4-(benzo[d]thiazol-2-yl)-4,5,6,7-tetrahydro-1H-imidazo[4,5-c]pyridine-5-carbonyl)-1-methyl-1H-1,2,4-triazol-3-yl)-2-methylpropanenitrile]
9 | 500 to 1000 nM | CC1(C)CC=C(c2ncc(C(=O)N3CCc4[nH]cnc4[C@H]3c3nc4ccccc4s3)s2)CC1 [Example 1351]
10 | < 500 nM | O=C(c1cn(CC(F)F)nc1Cl)N1CCc2[nH]cnc2[C@H]1c1nc2c(F)cccc2s1 [Example 1981, (S)-(3-chloro-1-(2,2-difluoroethyl)-1H-pyrazol-4-yl)(4-(4-fluorobenzo[d]thiazol-2-yl)-6,7-dihydro-1H-imidazo[4,5-c]pyridin-5(4H)-yl)methanone]
11 | < 500 nM | Cc1nc(-c2cnn(C)c2)oc1C(=O)N1CCc2[nH]cnc2[C@H]1c1nc2c(F)cccc2s1 [Example 1378, (S)-(4-(4-fluorobenzo[d]thiazol-2-yl)-6,7-dihydro-1H-imidazo[4,5-c]pyridin-5(4H)-yl)(4-methyl-2-(1-methyl-1H-pyrazol-4-yl)oxazol-5-yl)methanone]
12 | > 5000 nM | [2H][C@]1(c2nc3ccccc3s2)c2nc[nH]c2CCN1C(=O)c1cnc(-c2cnn(C)c2)s1 [Example 2158, [(4R)-4-(1,3-benzothiazol-2-yl)-4-deuterio-6,7-dihydro-1H-imidazo[4,5-c]pyridin-5-yl]-[2-(1-methylpyrazol-4-yl)thiazol-5-yl]methanone]
13 | > 5000 nM | CN(C)CCc1ccc2c(C(=O)N3CCc4[nH]cnc4[C@@H]3c3nc4ccccc4s3)cnn2c1 [Example 1454, (R)-(4-(benzo[d]thiazol-2-yl)-6,7-dihydro-1H-imidazo[4,5-c]pyridin-5(4H)-yl)(6-(2-(dimethylamino)ethyl)pyrazolo[1,5-a]pyridin-3-yl)methanone]
14 | < 500 nM | CC(C)(O)c1nc(C2CC2)c(C(=O)N2CCc3[nH]cnc3[C@H]2c2nc3ccccc3s2)o1 [Example 1543]
15 | 1000 to 5000 nM | O=C(c1cnn(CC(F)(F)F)c1C(F)F)N1CCc2[nH]cnc2[C@@H]1c1nc2ccccc2s1 [Example 1974, (R)-(4-(benzo[d]thiazol-2-yl)-6,7-dihydro-1H-imidazo[4,5-c]pyridin-5(4H)-yl)(5-(difluoromethyl)-1-(2,2,2-trifluoroethyl)-1H-pyrazol-4-yl)methanone]
16 | 500 to 1000 nM | Cc1ccc(-c2nnc(C(=O)N3CCc4[nH]cnc4[C@@H]3c3nc4c(F)cccc4s3)o2)nc1 [Example 1903, (R)-(4-(4-fluorobenzo[d]thiazol-2-yl)-6,7-dihydro-1H-imidazo[4,5-c]pyridin-5(4H)-yl)(5-(5-methylpyridin-2-yl)-1,3,4-oxadiazol-2-yl)methanone]
17 | 500 to 1000 nM | Cc1nn2ccccc2c1C(=O)N1CCc2[nH]cnc2[C@@H]1c1nc2ccccc2s1 [Example 1166, (R)-(4-(benzo[d]thiazol-2-yl)-6,7-dihydro-1H-imidazo[4,5-c]pyridin-5(4H)-yl)(2-methylpyrazolo[1,5-a]pyridin-3-yl)methanone]
18 | 1000 to 5000 nM | Cc1ncoc1C(=O)N1C[C@@H](C)c2[nH]cnc2[C@H]1c1nc2ccccc2s1 [Example 1547, ((4S,7R)-4-(benzo[d]thiazol-2-yl)-7-methyl-6,7-dihydro-1H-imidazo[4,5-c]pyridin-5(4H)-yl)(4-methyloxazol-5-yl)methanone]
19 | < 500 nM | O=C(c1cnn2c(Br)cccc12)N1CCc2[nH]cnc2[C@H]1c1nc2c(F)cccc2s1 [Example 1239]
20 | 500 to 1000 nM | N#Cc1ccn2ncc(C(=O)N3CCc4[nH]cnc4[C@H]3c3nc4ccc(F)cc4s3)c2c1 [Example 1155, (S)-3-(4-(6-fluorobenzo[d]thiazol-2-yl)-4,5,6,7-tetrahydro-1H-imidazo[4,5-c]pyridine-5-carbonyl)pyrazolo[1,5-a]pyridine-5-carbonitrile]
21 | < 500 nM | O=C(c1oc(N2CCOCC2)nc1C(F)(F)F)N1CCc2[nH]cnc2[C@@H]1c1nc2c(F)cccc2s1 [Example 1598, (R)-(4-(4-fluorobenzo[d]thiazol-2-yl)-6,7-dihydro-1H-imidazo[4,5-c]pyridin-5(4H)-yl)(2-morpholino-4-(trifluoromethyl)oxazol-5-yl)methanone]
22 | 500 to 1000 nM | O=C(c1cnn2cc(F)ccc12)N1CCc2[nH]cnc2[C@H]1c1nc2cc(F)ccc2s1 [Example 1333, (S)-(4-(5-fluorobenzo[d]thiazol-2-yl)-6,7-dihydro-1H-imidazo[4,5-c]pyridin-5(4H)-yl)(6-fluoropyrazolo[1,5-a]pyridin-3-yl)methanone]
23 | 500 to 1000 nM | O=C(c1cnn2cc(Cl)ccc12)N1CCc2[nH]cnc2[C@H]1c1nc2c(F)cccc2s1 [Example 1237]
24 | < 500 nM | O=C(CC1CC1(F)F)N1CCc2[nH]cnc2[C@H]1c1nc2ccccc2s1 (single isomer, unassigned) [Example 1271]
25 | < 500 nM | Cc1nn(C)c(Cl)c1C(=O)N1CCc2[nH]cnc2[C@H]1c1nc2c(F)cccc2s1 [Example 1742]
26 | 500 to 1000 nM | Cn1nncc1C(=O)N1CCc2[nH]cnc2[C@H]1c1nc2c(F)cccc2s1 [Example 1725]

Same assay, conditions: A375 cells expressing human R408W PAH; 24 hrs with compound; 13C-Tyrosine by LC-MS; average where tested multiple times

Row | Compound | AC50
27 | NC(=O)N1CC(C(=O)N2CCc3[nH]cnc3C2c2nc3ccccc3s2)C1 (stereo not drawn) | E, E

Same assay, conditions: A375 cells expressing human R408W PAH; 24 hrs with compound; 13C-Tyrosine by LC-MS; average where tested multiple times; read-out: AC50

Row | Compound | AC50
28 | Cc1nnc(CC(=O)N2CCc3[nH]cnc3[C@@H]2c2nc3c(F)cccc3s2)s1 (single isomer, unassigned) | > 5000 nM
29 | O=C(Cc1coc(C(F)F)n1)N1CCc2[nH]cnc2C1c1nc2ccccc2s1 (stereo not drawn) | 1000 to 5000 nM
30 | O=C(c1ocnc1CO)N1CC2(CC2)c2[nH]cnc2C1c1nc2ccccc2s1 (stereo not drawn) | 1000 to 5000 nM
31 | O=C(c1cnc(-c2ccccn2)o1)N1CCc2[nH]cnc2[C@H]1c1nc2ccccc2[nH]1 [(S)-(4-(1H-benzo[d]imidazol-2-yl)-6,7-dihydro-1H-imidazo[4,5-c]pyridin-5(4H)-yl)(2-(pyridin-2-yl)oxazol-5-yl)methanone] | 1000 to 5000 nM
32 | O=C(c1ncco1)N1CCc2[nH]cnc2[C@H]1c1nc2ccccc2[nH]1 [(S)-(4-(1H-benzo[d]imidazol-2-yl)-1,4,6,7-tetrahydro-5H-imidazo[4,5-c]pyridin-5-yl)(oxazol-2-yl)methanone] | 1000 to 5000 nM
33 | COCc1ccc2c(C(=O)N3CC4(CC4)c4[nH]cnc4C3c3nc4ccccc4s3)cnn2c1 (stereo not drawn) | 1000 to 5000 nM
34 | Cn1cc(-c2cnc(CC(=O)N3CCc4[nH]cnc4C3c3nc4ccccc4s3)s2)cn1 (stereo not drawn) | 1000 to 5000 nM
35 | Cc1nc(C(C)(C)O)oc1C(=O)N1CC(C)c2[nH]cnc2C1c1nc2c(F)cccc2s1 (stereo not drawn) | > 5000 nM
36 | O=C(c1cnn2cc(Br)ccc12)N1CCc2[nH]cnc2C1c1nc2ccc(F)cc2s1 (stereo not drawn) | > 5000 nM
37 | O=C(c1nsc2ccccc12)N1CCc2[nH]cnc2C1c1nc2ccccc2s1 (stereo not drawn) | 1000 to 5000 nM
38 | O=C(c1nccs1)N1CCc2[nH]cnc2C1c1nc2c(Br)cccc2s1 (stereo not drawn) | 1000 to 5000 nM
39 | N#Cc1ccn2ncc(C(=O)N3CCc4[nH]cnc4C3c3nc4ccc(Cl)cc4[nH]3)c2c1 (stereo not drawn) | > 5000 nM
40 | Cn1nc(N)cc1C(=O)N1CCc2[nH]cnc2C1c1nc2c(F)cccc2s1 (stereo not drawn) | > 5000 nM
41 | O=C(Cc1nc(C(F)(F)F)cs1)N1CCc2[nH]cnc2C1c1nc2cc(F)ccc2s1 (stereo not drawn) | 1000 to 5000 nM
42 | O=C(c1nnc(CCN2CC(F)C2)o1)N1CCc2[nH]cnc2C1c1nc2ccccc2s1 (stereo not drawn) | 1000 to 5000 nM
